Results taken from ChEMBL document CHEMBL1125699, “Development of a novel series of (2-quinolinylmethoxy)phenyl-containing compounds as high-affinity leukotriene D4 receptor antagonists. 4. Addition of chromone moiety enhances leukotriene D4 receptor binding affinity” (J Med Chem, 1991).

Experiments:
[1] = target: T1, Cysteinyl leukotriene receptor 1 (Cavia porcellus, UniProt Q2NNR5); assay: Binding affinity against LTD4 receptor in guinea pig lung membranes.; format: cell membranes
T1 sequence (Q2NNR5 whole entry): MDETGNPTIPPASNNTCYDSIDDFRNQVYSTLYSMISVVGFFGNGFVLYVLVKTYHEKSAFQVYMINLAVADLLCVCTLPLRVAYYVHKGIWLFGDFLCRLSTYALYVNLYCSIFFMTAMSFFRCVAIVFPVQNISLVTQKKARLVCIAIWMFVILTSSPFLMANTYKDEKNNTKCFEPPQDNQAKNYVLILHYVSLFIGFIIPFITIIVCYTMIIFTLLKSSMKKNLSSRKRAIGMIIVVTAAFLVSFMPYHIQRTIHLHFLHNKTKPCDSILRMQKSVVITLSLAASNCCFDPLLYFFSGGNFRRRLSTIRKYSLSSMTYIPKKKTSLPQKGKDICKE

[2] = target: T2, Cysteinyl leukotriene receptor 1 (Cavia porcellus) (UniProt Q2NNR5); assay: Radioligand binding affinity against LTD4 receptor in guinea pig lung membranes at the concentration of 30 nM.; format: cell membranes; settings: Membrane
T2 sequence (whole entry): T1 sequence (Q2NNR5 whole entry)

SMILES	Ki [1] [nM]	inhibition [2] [%]
O=C1CC(C(=O)O)Oc2cc(COc3ccc(OCc4ccc5ccccc5n4)cc3)ccc21 (stereo not given)	6.3	
CC1(CCC(=O)O)CC(=O)c2ccc(OCc3cccc(OCc4ccc5ccccc5n4)c3)cc2O1 (stereo not given)	1.2	
O=C1CC(C(=O)O)Oc2ccc(OCc3cccc(OCc4ccc5ccccc5n4)c3)cc21 (stereo not given)	1.3	
O=C1CC(C(=O)O)Oc2c(COc3ccc(OCc4ccc5ccccc5n4)cc3)cccc21 (stereo not given)	13	
O=C(O)c1cc(=O)c2ccc(OCc3ccc4ccccc4n3)cc2o1	7000	
O=C1CC(C(=O)O)Oc2cc(OCc3cccc(OCc4ccc5ccccc5n4)c3)ccc21 (stereo not given)	2.1	
CCOC(=O)C1CC(=O)c2ccc(COc3cccc(OCc4ccc5ccccc5n4)c3)cc2O1 (stereo not given)	30	
CCCc1c(OCc2cccc(OCc3ccc4ccccc4n3)c2)ccc2c1OC(C(=O)O)CC2=O (stereo not given)		22
O=C1CC(C(=O)O)Oc2ccc(Cl)c(OCc3ccc(OCc4ccc5ccccc5n4)cc3)c21 (stereo not given)	18	

Now from value to compound:

Ki [1] [nM]	inhibition [2] [%]	SMILES
0.3		O=C1CC(c2nnn[nH]2)Oc2cc(CCc3cccc(OCc4ccc5ccccc5n4)c3)ccc21 (stereo not given)
1.1		O=C(Nc1cccc2c1OC(c1nnn[nH]1)CC2=O)c1ccc(OCc2ccc3ccccc3n2)cc1 (stereo not given)
0.1		O=C1CC(c2nnn[nH]2)Oc2cc(OCc3cccc(OCc4ccc5ccccc5n4)c3)ccc21 (stereo not given)
15		O=C1CC(c2nnn[nH]2)Oc2c(COc3ccc(OCc4ccc5ccccc5n4)cc3)cccc21 (stereo not given)
2.5		O=C1CC(c2nnn[nH]2)Oc2cc(/C=C/c3cccc(OCc4ccc5ccccc5n4)c3)ccc21 (stereo not given)
0.12		O=C1CC(c2nnn[nH]2)Oc2cc(COc3cccc(OCc4ccc5ccccc5n4)c3)ccc21 (stereo not given)
